ChEMBL document CHEMBL2396623, “Direct targeting of β-catenin: Inhibition of protein-protein interactions for the inactivation of Wnt signaling” (Bioorg Med Chem, 2013)

target: T1, Catenin beta-1 (Homo sapiens, UniProt P35222); assay: Inhibition of GST-tagged Tcf4 binding to human beta-catenin after 2 hrs by ELISA
T1 sequence (P35222 whole entry): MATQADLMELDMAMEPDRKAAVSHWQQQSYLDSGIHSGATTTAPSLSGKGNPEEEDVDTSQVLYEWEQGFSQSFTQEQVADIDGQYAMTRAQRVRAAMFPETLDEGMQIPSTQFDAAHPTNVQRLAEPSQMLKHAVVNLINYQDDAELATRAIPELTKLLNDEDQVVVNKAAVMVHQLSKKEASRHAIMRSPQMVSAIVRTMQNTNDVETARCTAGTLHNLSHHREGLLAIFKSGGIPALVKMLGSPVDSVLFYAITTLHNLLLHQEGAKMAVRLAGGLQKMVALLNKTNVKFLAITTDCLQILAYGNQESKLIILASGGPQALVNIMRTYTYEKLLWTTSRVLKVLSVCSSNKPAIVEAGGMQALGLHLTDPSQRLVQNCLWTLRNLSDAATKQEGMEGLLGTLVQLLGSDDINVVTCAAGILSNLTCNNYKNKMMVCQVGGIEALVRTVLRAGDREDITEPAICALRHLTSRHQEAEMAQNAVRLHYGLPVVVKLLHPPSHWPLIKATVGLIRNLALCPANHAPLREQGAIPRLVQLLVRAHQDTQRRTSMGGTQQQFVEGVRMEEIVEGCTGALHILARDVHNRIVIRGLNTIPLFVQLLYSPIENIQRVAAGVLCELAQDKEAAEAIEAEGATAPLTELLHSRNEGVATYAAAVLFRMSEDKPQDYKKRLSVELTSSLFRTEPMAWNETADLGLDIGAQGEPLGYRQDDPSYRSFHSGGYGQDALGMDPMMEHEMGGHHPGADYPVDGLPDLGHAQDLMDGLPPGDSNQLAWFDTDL

SMILES | IC50 [µM]
CCCC(=O)c1cc2c(c(O)c1C)C(=O)C(=O)c1c(O)cccc1-2 | < 10
COC(=O)c1c(C)cc2c(c1O)[C@]1(O)C(=O)c3cc4c(c(O)c3C(=O)[C@]1(OC)[C@H](O)C2)C(=O)C=C(N[C@@H]1O[C@H](C)[C@@H](OC)[C@H](O)[C@@H]1OC)C4=O | < 10
COc1c(CC(C)OC(=O)c2c(C)cc(O)cc2O)c2c3c(CC(C)OC(=O)c4c(C)cc(O)cc4O)c(OC)c(=O)c4c(O)cc(OC)c(c5c(OC)cc(O)c(c1=O)c52)c43 (centres undefined) | < 10
COc1c(C[C@@H](C)OC(=O)Oc2ccc(O)cc2)c2c3c(C[C@@H](C)OC(=O)c4ccccc4)c(OC)c(=O)c4c(O)cc(OC)c(c5c(OC)cc(O)c(c1=O)c52)c43 [CALPHOSTIN C] | < 10
